The record followed here is patent US10034462B2, “Animal model of nash-induced hepatocellular carcinoma and methods for developing specific therapeutics” (THE REGENTS OF THE UNIVERSITY OF CALIFORNIA, priority 2015, dated 2018).

One data set deals with LFD or HFD-fed WT mice. Nature of the data set: Tunicamycin-induced ER stress and liver damage in LFD- or HFD-fed WT mice. It is filed as in vivo, mouse. An excerpt: FIGS. 10A-10J are pictorial and graphical diagrams showing that ER stress is sustained by HFD in MUP-uPA mice. […] Arrows indicate dilated ER (scale bar=1 μm). […] Representative images of livers and H&E (FIG. 10D) and TUNEL (FIG. 10E) staining of liver sections prepared 36 hrs later (scale bar=100 μm). […] Data are means±S.D. (n=3-4 per group). […] All bar graphs represent means±S.D. n=3 per group). *p<0.05.
Although the mechanism responsible for hepatocyte death in young MUP-uPA mice is not entirely clear, their hepatocytes are ER stressed (Sandgren et al., 1991). Indeed, several ER stress markers, including CHOP, GRP78, spliced XBP1 (sXBP1), phosphorylated (p) eIF2α, p-IRE1α and p-JNK, were elevated in 5 weeks old MUP-uPA mice compared with WT (FIGS. 3A and 10A). While most markers declined in 16 week old MUP-uPA mice, paralleling the decline in uPA expression, HFD-fed MUP-uPA mice maintained strong eIF2α and JNK phosphorylation and CHOP expression, (FIGS. 3B and 10A). In WT mice, HFD feeding induced only a slight elevation in p-eIF2α and CHOP mRNA with no effect on CHOP protein (FIG. 3B). Immunohistochemistry (IHC) confirmed nuclear CHOP in hepatocytes of 5 weeks old MUP-uPA mice, which was sustained at 16 weeks of age only in HFD-fed MUP-uPA mice (FIG. 3C). […] After 24 weeks of HFD, expression of the […] ligand TRAIL was also elevated in the MUP-uPA liver. […] Thus, whereas ER stress appears to be induced by uPA expression in 5 weeks old MUP-uPA mice, it declines due to transgene extinction. However, feeding these mice with HFD re-kindles the stress response and induces several cell death mediators that are not expressed in HFD-fed WT mice. To determine whether ER stress can cause ballooning degeneration and hepatocyte death, we injected HFD-fed WT mice with the protein glycosylation inhibitor and ER stress elicitor tunicamycin. This treatment led to rapid (36 hrs) induction of ballooning degeneration, hepatocyte apoptosis and ALT release only in HFD-fed mice (FIGS. 10D-10F).

Data set [1] relates to primary hepatocytes from WT and MUP-uPA mice. Nature of the data set: PA-induced lipotoxic cell death in primary hepatocytes (Cell Counting Kit-8 cell viability). It counts as cell-based. As to conditions: for PA-induced cell death (cell viability): 300 μM PA for 24 hr with 500 μM TUDCA or 1 mM 4-PBA, WT and MUP-uPA hepatocytes. As to the method: (§1) Cell viability was assessed using Cell Counting Kit-8 assay. Data are means±S.D. of triplicate wells. *p<0.05. […] CHOP expression, SREBP1 maturation, and JNK phosphorylation were assessed by IB. FIGS. 4C-4D show the effect of GRP78 overexpression. MUP-uPA hepatocytes were infected with adenoviruses encoding LacZ or GRP78 and then incubated with PA. SREBP1 maturation (FIG. 4C) and cell viability (FIG. 4D) were assessed as above. […] Data are means±S.D. of triplicate wells. *p<0.05. FIGS. 4F-4I show the effect of TUDCA on NASH in HFD-fed MUP-uPA mice. 16 week old HFD-fed MUP-uPA mice were i.p. injected with TUDCA (250 mg/kg) or vehicle, and after 4 weeks of daily treatment, liver histology (scale bar=100 μm) (FIG. 4F), serum ALT (FIG. 4G), liver TG (FIG. 4H) and liver cholesterol (FIG. 4I) were evaluated. Bar graphs are means±S.D. (n=5 per group). *p<0.05. See also FIGS. 11A-11M.
To examine whether ER stress enhances lipotoxicity in MUP-uPA hepatocytes, we incubated WT and MUP-uPA hepatocytes with PA.

The test system of the next data set is HFD-fed MUP-uPA mice. The experiment in a line: Effect of TUDCA on NASH in HFD-fed MUP-uPA mice. It counts as in vivo, mouse. As to the method: as §1, with “FIGS. 4A-4I are pictorial and graphical diagrams showing that chemical chaperons attenuate lipotoxicity and liver damage in MUP-uPA mice. […] Cell viability” for “Cell viability”
FIGS. 11A-11M are pictorial and graphical diagrams showing the effects of TUDCA and GRP78 overexpression and CHOP ablation on NASH and HCC development. FIGS. 11A and 11B show cell death and ROS accumulation in livers of TUDCA- or vehicle-treated HFD-fed MUP-uPA mice were examined by TUNEL (FIG. 11A) and DHE staining (FIG. 11B), respectively (scale bar=100 μm). […] CHOP protein expression in whole liver and mature SREBP1 in the nuclear fraction were examined by IB analysis. Shown are three individual livers per condition. FIGS. 11D and 11E show the effects of GRP78 overexpression. HFD-fed MUP-uPA mice were intravenously injected with 1×10^9 pfu of Ad-LacZ or Ad-GRP78. After 6 days the mice (n=6 per group) were sacrificed and hepatic steatosis was analyzed by H&E staining (scale bar=100 μm) (FIG. 11D) and GRP78 expression was determined by IB analysis (FIG. 11E). […] Data are means±S.D. (n=3 per group). […] FIGS. 11H-11K show the effect of hepatocyte CHOP ablation on tumor development and severity of NASH in HFD-fed MUP-uPA mice at 40 weeks of age. […] Results are means±S.E.M. (Chop^F/F/MUP-uPA, n=17; Chop^Δhep/MUP-uPA, n=11). *p<0.05. […] Data are means±S.D. (n=5-6 per group).
FIGS. 12A-12F are pictorial and graphical diagrams showing characteristics of Tnfr1^−/−/MUP-uPA mice. FIGS. 12A and 12B show the effect of 4 weeks TUDCA treatment on HFD-fed MUP-uPA mouse liver. IHC of F4/80 (scale bar=100 μm) (FIG. 12A) and TNF mRNA expression (FIG. 12B). Data are means±S.D. (n=5 per group). *p<0.05. […] Data are presented as means±S.D. (n=3 per group). […] Data are presented as means±S.D. (n=5 per group). […] Results are shown as means±S.D.
Hepatic lipids were extracted with chloroform/methanol (2:1 v/v), and TG and total cholesterol contents were measured with Triglyceride Reagent Set (Pointe Scientific) and Cholesterol E (Wako), respectively. FA composition was analyzed by gas-chromatography at SRL Inc., Tokyo, Japan.
Livers were fixed in 10% neutral-buffered formalin or 4% paraformaldehyde, embedded in paraffin, sectioned, and stained with hematoxylin and eosin (H&E), Sirius Red, and processed for IHC. For frozen block preparation, tissue was embedded in Tissue-Tek OCT compound (Sakura Finetek). IHC and IF analyses were described (He et al., 2013). Stained areas were quantitated with Image J software. Slides were incubated with primary antibodies, followed by secondary antibodies labeled with Alexa488 or Alexa594 (Molecular Probes). TUNEL staining was performed using an Apoalert DNA Fragmentation Assay kit (Clontech). Accumulation of superoxide anions was examined by DHE staining (Sakurai et al., 2008). Tissue sample preparation and EM analysis were described (Lee et al., 2012).
We examined the effect of TUDCA on NASH development. We initiated daily i.p. injections of TUDCA (250 mg/kg) or phosphate-buffered saline (PBS; vehicle control) to HFD-fed MUP-uPA mice at 16 weeks of age. […]

The test system of data set [2] is primary hepatocytes from WT and MUP-uPA mice. Nature of the data set: Immunoblot of CHOP expression, SREBP1 maturation and JNK phosphorylation in PA-treated primary hepatocytes. It is filed as cell-based, mouse. As to the method:
as §1, with “FIGS. 4A-4I are pictorial and graphical diagrams showing that chemical chaperons attenuate lipotoxicity and liver damage in MUP-uPA mice. […] Cell viability” for “Cell viability”
Primary hepatocytes were isolated (He et al., 2013) and cultured in William's E medium with 10% FBS on collagen-coated plates. PA (Sigma) was dissolved in ethanol at 50° C. and then diluted in bovine serum albumin-containing RPMI-1640 medium that was applied to primary hepatocytes at a final concentration of 200 (to analyze signal transduction) or 300 (to analyze cell death) μM.
Immunoblotting and real-time Q-PCR were described (Maeda et al., 2005). Antibodies used were against: phospho-ERK, ERK1/2, phospho STAT3, STAT3, phospho-JNK, JNK1/2, phospho-S6, S6, p65, cyclinD1, YAP (all from Cell Signaling); K19, GRP78, SREBP1, CHOP, CCL7, TNFR1 (all from Santa Cruz Biotechnology); phospho-eIF2α (Upstate); tubulin (Sigma); F4/80 (Molecular Probes); Ki67 (Gene Tex); AFP (Biocare Medical); TNF (R&D Systems); B220 (BD Pharmingen). TUDCA and 4-PBA were from Calbiochem and Sigma, respectively. GSH:GSSG ratio was analyzed using GSSG/GSH Quantification Kit (Dojindo).
To examine whether ER stress enhances lipotoxicity in MUP-uPA hepatocytes, we incubated WT and MUP-uPA hepatocytes with PA. […] PA increased CHOP expression and SREBP1 maturation in WT hepatocytes, but these effects were more pronounced in MUP-uPA hepatocytes, which expressed both proteins prior to PA addition (FIG. 4B). To examine the contribution of ER stress to these phenomena, we treated hepatocytes with the chemical chaperons 4-phenylbutyrate (4-PBA) and tauro-ursodeoxycholic acid (TUDCA), which reduce ER stress (Ozcan et al., 2006).

[3] abbreviates: HFD-fed WT mice, 1.25 mg/kg i.p., 36 hrs, only in HFD-fed mice.
Setting [4] is: 250 mg/kg i.p. daily for 4 weeks from 16 weeks of age, vs PBS vehicle.
Setting [5] is: 250 mg/kg i.p. daily for 4 weeks, vs vehicle.
The mark [6] stands for this setting: 200 μM PA, WT hepatocytes, more pronounced in MUP-uPA hepatocytes.

As to tunicamycin, the “liver steatosis (gross appearance of liver)” value in the data set on LFD or HFD-fed WT mice (HFD-fed WT mice, 1.25 mg/kg i.p., 36 hrs) is reported as “more steatotic”. Moreover, in the data set with LFD or HFD-fed WT mice (setting [3]), the “ALT release (serum ALT)” value is “induction”, the ballooning degeneration result is “induction” and the “hepatocyte apoptosis (TUNEL)” value is listed as “induction”. Besides, the “liver damage by tunicamycin alone” value in the data set with LFD or HFD-fed WT mice (short term, by itself (without HFD)) is “did not damage the liver”.

As for `C[C@H](CCC(=O)NCCS(=O)(=O)O)[C@H]1CC[C@H]2[C@@H]3[C@@H](O)C[C@@H]4C[C@H](O)CC[C@]4(C)[C@H]3CC[C@]12C` [TUDCA, tauroursodeoxycholic acid], the “PA-induced cell death (cell viability)” value in data set [1] was “attenuated PA-induced cell death”. Also, in the data set on HFD-fed MUP-uPA mice (setting [4]), the “hepatic TG” value is given as “significantly reduced”, the hepatic cholesterol result is “significantly reduced”, the “hepatocyte ballooning (liver histology)” value is given as “attenuated” and the “hepatosteatosis (liver histology)” value is “attenuated”. Moreover, in the data set with HFD-fed MUP-uPA mice (setting [4]), the “serum ALT” value is recorded as “significantly reduced”. The “SREBP1 maturation in liver (IB)” value with HFD-fed MUP-uPA mice (250 mg/kg i.p. daily for 4 weeks, nuclear fraction) is “inhibited”. In the data set with HFD-fed MUP-uPA mice (setting [5]), the “ROS accumulation (DHE staining)” value is “suppressed” and the “hepatocyte death (TUNEL)” value is “suppressed”. Moreover, the “CHOP expression in liver (IB)” value in the data set with HFD-fed MUP-uPA mice (250 mg/kg i.p. daily for 4 weeks, whole liver) is on record as “inhibited”. Also, in the data set with HFD-fed MUP-uPA mice (4 weeks TUDCA treatment), the “TNF expression in liver (mRNA)” value is “inhibited” and the “macrophage infiltration in liver (F4/80 IHC)” value is reported as “inhibited”.

In the case of `CCCCCCCCCCCCCCCC(=O)O` [PA, palmitic acid], the “lipotoxic cell death caused by PA” value in data set [1] (300 μM PA, after 24 hrs, more extensive in MUP-uPA hepatocytes) is “lipotoxic cell death was seen in both WT and MUP-uPA hepatocytes”. In addition, in data set [2] (setting [6]), the “CHOP expression caused by PA” value was “increased” and the “SREBP1 maturation caused by PA” value is recorded as “increased”. Moreover, the “JNK activation by PA” value in data set [2] (200 μM PA, effect restricted to WT hepatocytes) is “activated”.

`O=C(O)CCCc1ccccc1` [4-PBA, 4-phenylbutyric acid]: in data set [1], the “PA-induced cell death (cell viability)” value was “attenuated PA-induced cell death”. Also, in data set [2] (200 μM PA with 1 mM 4-PBA, IB), the “CHOP induction upon PA treatment” value is recorded as “reduced”, the “JNK phosphorylation upon PA treatment” value is reported as “only partially reduced” and the “SREBP1 maturation upon PA treatment” value is reported as “reduced”.
